According to article PMC5218480 (PLoS ONE, 2017):

Test system: MV-4-11 cells
Assay: Gene expression microarray analysis (Affymetrix PrimeView) and GSEA
Assay type: cell-based, human
Parameters: RFU PODN (11730768_x_at) / Fold change /veh PODN (11730768_x_at) / RFU LINC00158 (11744669_a_at) / Fold change /veh LINC00158 (11744669_a_at) / RFU DUSP10 (11751237_a_at) / Fold change /veh DUSP10 (11751237_a_at) / RFU ID3 (11757404_x_at) / Fold change /veh ID3 (11757404_x_at) / RFU PLEKHG5 (11737974_s_at) / Fold change /veh PLEKHG5 (11737974_s_at) / RFU LRRC4B (11730491_at) / Fold change /veh LRRC4B (11730491_at) / RFU GIMAP4 (11747438_a_at) / Fold change /veh GIMAP4 (11747438_a_at) / RFU KRT8 (11758183_x_at) / Fold change /veh KRT8 (11758183_x_at) / RFU CNN1 (11734310_a_at) / Fold change /veh CNN1 (11734310_a_at) / RFU VPS37D (11726825_at) / Fold change /veh VPS37D (11726825_at) / RFU C10orf10 (11716522_x_at) / Fold change /veh C10orf10 (11716522_x_at) / RFU KIR2DL2 /// KIR2DL4 /// KIR2DL5A /// KIR2DL5B /// KIR2DS1 /// KIR2DS2 /// KIR2DS3 /// KIR2DS4 /// KIR3DL3 /// KIR3DL3 /// KIR3DS1 (11738374_at) / Fold change /veh KIR2DL2 /// KIR2DL4 /// KIR2DL5A /// KIR2DL5B /// KIR2DS1 /// KIR2DS2 /// KIR2DS3 /// KIR2DS4 /// KIR3DL3 /// KIR3DL3 /// KIR3DS1 (11738374_at) / RFU C1QL1 (11718748_at) / Fold change /veh C1QL1 (11718748_at) / RFU TMPRSS4 (11747572_a_at) / Fold change /veh TMPRSS4 (11747572_a_at) / RFU HAMP (11756126_x_at) / Fold change /veh HAMP (11756126_x_at) / RFU RNFT2 (11725882_a_at) / Fold change /veh RNFT2 (11725882_a_at) / RFU NR4A2 (11747474_a_at) / Fold change /veh NR4A2 (11747474_a_at) / RFU ABCC12 (11746883_a_at) / Fold change /veh ABCC12 (11746883_a_at) / RFU TMEM136 (11760407_x_at) / Fold change /veh TMEM136 (11760407_x_at) / RFU CLDN22 /// WWC2 (11732394_at) / Fold change /veh CLDN22 /// WWC2 (11732394_at) / RFU HLA-DPB1 (11760878_x_at) / Fold change /veh HLA-DPB1 (11760878_x_at) / RFU SPINT1 (11716480_a_at) / Fold change /veh SPINT1 (11716480_a_at) / RFU GAP43 (11754022_s_at) / Fold change /veh GAP43 (11754022_s_at) / RFU A4GNT (11735810_at) / Fold change /veh A4GNT (11735810_at) / RFU PRB3 (11715151_x_at) / Fold change /veh PRB3 (11715151_x_at) / RFU TUBB4B (11761932_at) / Fold change /veh TUBB4B (11761932_at) / RFU CAPN14 (11732068_a_at) / Fold change /veh CAPN14 (11732068_a_at) / RFU TMCC2 (11721928_a_at) / Fold change /veh TMCC2 (11721928_a_at) / RFU IRGQ (11745062_a_at) / Fold change /veh IRGQ (11745062_a_at) / RFU FAM174B (11720279_a_at) / Fold change /veh FAM174B (11720279_a_at) / RFU TMPRSS4 (11748680_a_at) / Fold change /veh TMPRSS4 (11748680_a_at) / RFU FAM212B (11763350_a_at) / Fold change /veh FAM212B (11763350_a_at) / RFU PLEKHG5 (11743358_a_at) / Fold change /veh PLEKHG5 (11743358_a_at) / RFU ZSCAN30 (11745921_a_at) / Fold change /veh ZSCAN30 (11745921_a_at) / RFU CMKLR1 (11741424_a_at) / Fold change /veh CMKLR1 (11741424_a_at) / RFU LOC101060620 /// MAPK8IP1 (11723275_at) / Fold change /veh LOC101060620 /// MAPK8IP1 (11723275_at) / RFU SPTSSB (11747773_x_at) / Fold change /veh SPTSSB (11747773_x_at) / RFU PRSS12 (11739890_at) / Fold change /veh PRSS12 (11739890_at) / RFU BIN1 (11741810_x_at) / Fold change /veh BIN1 (11741810_x_at) / RFU WNT11 (11732464_a_at) / Fold change /veh WNT11 (11732464_a_at) / RFU C10orf10 (11716521_a_at) / Fold change /veh C10orf10 (11716521_a_at) / RFU C5orf56 (11738089_at) / Fold change /veh C5orf56 (11738089_at) / RFU CYB561 (11721691_x_at) / Fold change /veh CYB561 (11721691_x_at) / RFU ANKRD19P (11752326_a_at) / Fold change /veh ANKRD19P (11752326_a_at) / RFU OR2T12 /// OR2T33 /// OR2T8 (11738714_s_at) / Fold change /veh OR2T12 /// OR2T33 /// OR2T8 (11738714_s_at) / RFU VCAN (11748164_a_at) / Fold change /veh VCAN (11748164_a_at) / RFU JSRP1 (11732532_at) / Fold change /veh JSRP1 (11732532_at) / RFU KRTAP10-11 (11738290_x_at) / Fold change /veh KRTAP10-11 (11738290_x_at) / RFU MYO3A (11730013_a_at) / Fold change /veh MYO3A (11730013_a_at) / RFU EBF3 (11725865_a_at) / Fold change /veh EBF3 (11725865_a_at) / RFU CAMK2N1 (11719241_x_at) / Fold change /veh CAMK2N1 (11719241_x_at) / RFU C5orf56 (11738088_a_at) / Fold change /veh C5orf56 (11738088_a_at) / RFU OLFML3 (11715873_a_at) / Fold change /veh OLFML3 (11715873_a_at) / RFU LOC100653217 /// NTM (11731650_a_at) / Fold change /veh LOC100653217 /// NTM (11731650_a_at) / RFU MAPK11 (11762145_a_at) / Fold change /veh MAPK11 (11762145_a_at) / RFU FIZ1 (11724087_x_at) / Fold change /veh FIZ1 (11724087_x_at) / RFU OASL (11726364_x_at) / Fold change /veh OASL (11726364_x_at) / RFU SOX15 (11748057_x_at) / Fold change /veh SOX15 (11748057_x_at) / RFU CD79A (11719716_a_at) / Fold change /veh CD79A (11719716_a_at) / RFU HIST1H1D (11736915_at) / Fold change /veh HIST1H1D (11736915_at) / RFU CASKIN2 (11723855_a_at) / Fold change /veh CASKIN2 (11723855_a_at) / RFU LOC730098 (11760151_x_at) / Fold change /veh LOC730098 (11760151_x_at) / RFU OR4N2 (11742367_at) / Fold change /veh OR4N2 (11742367_at) / RFU PRRT2 (11749266_a_at) / Fold change /veh PRRT2 (11749266_a_at) / RFU SNX32 (11753110_a_at) / Fold change /veh SNX32 (11753110_a_at) / RFU CDHR5 (11726645_a_at) / Fold change /veh CDHR5 (11726645_a_at) / RFU RCAN1 (11760418_a_at) / Fold change /veh RCAN1 (11760418_a_at) / RFU FAM167A (11723789_a_at) / Fold change /veh FAM167A (11723789_a_at) / RFU FAM26E (11764081_at) / Fold change /veh FAM26E (11764081_at) / RFU ISYNA1 (11749810_s_at) / Fold change /veh ISYNA1 (11749810_s_at) / RFU ACY1 (11761880_at) / Fold change /veh ACY1 (11761880_at) / RFU 11764098_at / Fold change /veh 11764098_at / RFU SAMD14 (11745864_x_at) / Fold change /veh SAMD14 (11745864_x_at) / RFU NPB (11741838_a_at) / Fold change /veh NPB (11741838_a_at) / RFU TMPRSS6 (11731388_a_at) / Fold change /veh TMPRSS6 (11731388_a_at) / RFU KRTAP10-2 (11738614_at) / Fold change /veh KRTAP10-2 (11738614_at) / RFU ARHGAP8 /// PRR5-ARHGAP8 (11727945_x_at) / Fold change /veh ARHGAP8 /// PRR5-ARHGAP8 (11727945_x_at) / RFU KRTAP5-7 /// NADSYN1 (11734609_at) / Fold change /veh KRTAP5-7 /// NADSYN1 (11734609_at) / RFU RASL12 (11751679_a_at) / Fold change /veh RASL12 (11751679_a_at) / RFU CDKN2B (11736163_a_at) / Fold change /veh CDKN2B (11736163_a_at) / RFU PRF1 (11729649_at) / Fold change /veh PRF1 (11729649_at) / RFU, ZNF638 /// ZNF638-IT1 / Fold change vs veh, ZNF638 /// ZNF638-IT1 / RFU, PANK3 / Fold change vs veh, PANK3 / RFU, SH3YL1 / Fold change vs veh, SH3YL1 / RFU, ZEB2 / Fold change vs veh, ZEB2 / RFU, NRIP1 / Fold change vs veh, NRIP1 / RFU, PTTG1IP / Fold change vs veh, PTTG1IP / RFU, CAPN2 / Fold change vs veh, CAPN2 / RFU, MED14 / Fold change vs veh, MED14 / RFU, SNORA58 / Fold change vs veh, SNORA58 / RFU, C1orf63 / Fold change vs veh, C1orf63 / RFU, LRRFIP1 / Fold change vs veh, LRRFIP1 / RFU, NDUFAF7 / Fold change vs veh, NDUFAF7 / RFU, SLC12A2 / Fold change vs veh, SLC12A2 / RFU, IBTK / Fold change vs veh, IBTK / RFU, ESF1 / Fold change vs veh, ESF1 / Fold change vs veh, TMEM50B / RFU, TAOK1 / Fold change vs veh, TAOK1 / RFU, ACBD3 / Fold change vs veh, ACBD3 / RFU, TMA16 / Fold change vs veh, TMA16 / RFU, RWDD3 / Fold change vs veh, RWDD3 / RFU, BCAT1 / Fold change vs veh, BCAT1 / RFU, EDEM3 / Fold change vs veh, EDEM3 / RFU, TMEM33 / Fold change vs veh, TMEM33 / RFU, WDR75 / Fold change vs veh, WDR75 / RFU, AHCTF1 / Fold change vs veh, AHCTF1 / RFU, TFRC / Fold change vs veh, TFRC / RFU, ZDHHC17 / Fold change vs veh, ZDHHC17 / RFU, NOM1 / Fold change vs veh, NOM1 / RFU, ARL8B / Fold change vs veh, ARL8B / RFU, ZBTB11 / Fold change vs veh, ZBTB11 / RFU, TAMM41 / Fold change vs veh, TAMM41 / RFU, KIAA1704 /// LOC100996395 / Fold change vs veh, KIAA1704 /// LOC100996395 / RFU, ING1 / Fold change vs veh, ING1 / RFU, TRMT61B / Fold change vs veh, TRMT61B / RFU, FUBP3 / Fold change vs veh, FUBP3 / RFU, TP53 / Fold change vs veh, TP53 / RFU, TNKS2 / Fold change vs veh, TNKS2 / RFU, ZFP14 / Fold change vs veh, ZFP14 / RFU, ACTR2 / Fold change vs veh, ACTR2 / RFU, PPP3R1 / Fold change vs veh, PPP3R1 / RFU, PIK3R1 / Fold change vs veh, PIK3R1 / RFU, HNRNPA1 / Fold change vs veh, HNRNPA1 / RFU, RNF170 / Fold change vs veh, RNF170 / RFU, ZNF28 / Fold change vs veh, ZNF28 / RFU, RNGTT / Fold change vs veh, RNGTT / RFU, OGT / Fold change vs veh, OGT / RFU, BRD1 / Fold change vs veh, BRD1 / RFU, MARS / Fold change vs veh, MARS / RFU, ZNF655 / Fold change vs veh, ZNF655 / RFU, FAHD1 / Fold change vs veh, FAHD1 / RFU, BDP1 / Fold change vs veh, BDP1 / RFU, LRRCC1 / Fold change vs veh, LRRCC1 / RFU, ARID1A / Fold change vs veh, ARID1A / RFU, ZNF146 / Fold change vs veh, ZNF146 / RFU, ZNF330 / Fold change vs veh, ZNF330 / RFU, GPN3 / Fold change vs veh, GPN3 / RFU, C9orf123 / Fold change vs veh, C9orf123 / RFU, N4BP2L2 / Fold change vs veh, N4BP2L2 / RFU, ARFIP1 / Fold change vs veh, ARFIP1 / RFU, FAM179B / Fold change vs veh, FAM179B / RFU, BCL10 / Fold change vs veh, BCL10 / RFU, UHRF1BP1L / Fold change vs veh, UHRF1BP1L / RFU, BET1 / Fold change vs veh, BET1 / RFU, CNOT2 / Fold change vs veh, CNOT2 / RFU, ZNF268 / Fold change vs veh, ZNF268 / Fold change vs veh, ZNF507 / RFU, DGCR2 / Fold change vs veh, DGCR2 / RFU, WDSUB1 / Fold change vs veh, WDSUB1 / Fold change vs veh, HSP90B1 /// MIR3652 / RFU, ADSS / Fold change vs veh, ADSS / RFU, GK / Fold change vs veh, GK / RFU, ZNF148 / Fold change vs veh, ZNF148 / RFU, TAF9 / Fold change vs veh, TAF9 / RFU, SLC1A5 / Fold change vs veh, SLC1A5 / RFU, SLMO2 / Fold change vs veh, SLMO2 / RFU, ABCC4 / Fold change vs veh, ABCC4 / RFU, LOC101060439 /// RAP1B / Fold change vs veh, LOC101060439 /// RAP1B / RFU, RFX7 / Fold change vs veh, RFX7 / RFU, GTPBP10 / Fold change vs veh, GTPBP10 / RFU, CNEP1R1 / Fold change vs veh, CNEP1R1 / RFU, BIVM-ERCC5 /// ERCC5 / Fold change vs veh, BIVM-ERCC5 /// ERCC5 / RFU, ILF3 / Fold change vs veh, ILF3 / RFU 11762660_at / Fold change /veh 11762660_at / RFU VCAN (11757783_s_at) / Fold change /veh VCAN (11757783_s_at) / RFU DDX43 (11728927_at) / Fold change /veh DDX43 (11728927_at) / RFU KRT8 (11758188_x_at) / Fold change /veh KRT8 (11758188_x_at) / RFU NKD1 (11759106_at) / Fold change /veh NKD1 (11759106_at) / RFU SRD5A1 (11742802_a_at) / Fold change /veh SRD5A1 (11742802_a_at) / RFU TPSAB1 /// TPSB2 (11721975_s_at) / Fold change /veh TPSAB1 /// TPSB2 (11721975_s_at) / RFU GSTM3 (11746129_a_at) / Fold change /veh GSTM3 (11746129_a_at) / RFU IL23R (11737362_x_at) / Fold change /veh IL23R (11737362_x_at) / RFU TMEM51 (11727254_a_at) / Fold change /veh TMEM51 (11727254_a_at) / RFU PIWIL2 (11732686_x_at) / Fold change /veh PIWIL2 (11732686_x_at) / RFU ORM1 (11744905_x_at) / Fold change /veh ORM1 (11744905_x_at) / RFU CCDC152 (11743942_at) / Fold change /veh CCDC152 (11743942_at) / RFU ECM1 (11717891_a_at) / Fold change /veh ECM1 (11717891_a_at) / RFU IL23R (11748794_a_at) / Fold change /veh IL23R (11748794_a_at) / RFU TNFAIP8L3 (11732012_x_at) / Fold change /veh TNFAIP8L3 (11732012_x_at) / RFU MBOAT4 (11741988_at) / Fold change /veh MBOAT4 (11741988_at) / RFU 11764193_at / Fold change /veh 11764193_at / RFU TMEM53 (11763286_at) / Fold change /veh TMEM53 (11763286_at) / RFU MAGEB2 (11727129_at) / Fold change /veh MAGEB2 (11727129_at) / RFU TMEM200A (11744735_a_at) / Fold change /veh TMEM200A (11744735_a_at) / RFU CCDC152 (11751479_a_at) / Fold change /veh CCDC152 (11751479_a_at) / RFU FAM211A (11726209_a_at) / Fold change /veh FAM211A (11726209_a_at) / RFU RGS16 (11746705_a_at) / Fold change /veh RGS16 (11746705_a_at) / RFU VCAN (11755009_s_at) / Fold change /veh VCAN (11755009_s_at) / RFU RHOB (11743442_s_at) / Fold change /veh RHOB (11743442_s_at) / RFU RGS16 (11720943_a_at) / Fold change /veh RGS16 (11720943_a_at) / RFU RGS16 (11720944_at) / Fold change /veh RGS16 (11720944_at) / RFU, VPS4B / Fold change vs veh, VPS4B / RFU, CREB1 / Fold change vs veh, CREB1 / RFU, DNAJC13 / Fold change vs veh, DNAJC13 / RFU, GNAQ / Fold change vs veh, GNAQ / RFU, CDK5R1 / Fold change vs veh, CDK5R1 / RFU, ZRANB3 / Fold change vs veh, ZRANB3 / RFU, CUL4A / Fold change vs veh, CUL4A / RFU, CCNY / Fold change vs veh, CCNY / RFU, UFL1 / Fold change vs veh, UFL1 / RFU, COG3 / Fold change vs veh, COG3 / RFU, DIAPH2 / Fold change vs veh, DIAPH2 / RFU, SKA2 / Fold change vs veh, SKA2 / RFU, AFF3 / Fold change vs veh, AFF3 / RFU, LMF1 / Fold change vs veh, LMF1 / RFU, IPO11 / Fold change vs veh, IPO11 / RFU, DFFB / Fold change vs veh, DFFB / RFU, FOXP1 / Fold change vs veh, FOXP1 / RFU, CARD8 / Fold change vs veh, CARD8 / RFU, STRN3 / Fold change vs veh, STRN3 / RFU, ADK / Fold change vs veh, ADK / RFU, RASSF2 / Fold change vs veh, RASSF2 / RFU, WIPF1 / Fold change vs veh, WIPF1 / RFU, LARP1B / Fold change vs veh, LARP1B / RFU, RASA1 / Fold change vs veh, RASA1 / RFU, RB1 / Fold change vs veh, RB1 / RFU, PPFIA1 / Fold change vs veh, PPFIA1 / RFU, MAT2A / Fold change vs veh, MAT2A / RFU, CCT5 / Fold change vs veh, CCT5 / RFU, WDR92 / Fold change vs veh, WDR92 / RFU, CUX1 / Fold change vs veh, CUX1 / RFU, TTC7A / Fold change vs veh, TTC7A / RFU, TMEM135 / Fold change vs veh, TMEM135 / RFU, DEPTOR / Fold change vs veh, DEPTOR / RFU, CPM / Fold change vs veh, CPM / RFU, DNAJB6 / Fold change vs veh, DNAJB6 / RFU, CACNA2D3 / Fold change vs veh, CACNA2D3 / RFU, DTX4 / Fold change vs veh, DTX4 / RFU, TFCP2 / Fold change vs veh, TFCP2 / RFU, GMCL1 /// GMCL1P1 / Fold change vs veh, GMCL1 /// GMCL1P1 / RFU, AEBP2 / Fold change vs veh, AEBP2 / RFU, SNHG1 /// SNORD22 /// SNORD25 /// SNORD26 /// SNORD27 /// SNORD28 /// SNORD29 /// SNORD31 / Fold change vs veh, SNHG1 /// SNORD22 /// SNORD25 /// SNORD26 /// SNORD27 /// SNORD28 /// SNORD29 /// SNORD31 / Fold change (Aza/veh), C12orf56 (ProbeSet 11735607_a_at) / Fold change (ACY-1035/veh), C12orf56 (ProbeSet 11735607_a_at) / Fold change (Aza/veh), FGFR1OP (ProbeSet 11751329_s_at) / Fold change (ACY-1035/veh), FGFR1OP (ProbeSet 11751329_s_at) / Fold change (Aza/veh), VPS36 (ProbeSet 11739960_a_at) / Fold change (ACY-1035/veh), VPS36 (ProbeSet 11739960_a_at) / RFU SYPL1 (11715823_x_at) / Fold change /veh SYPL1 (11715823_x_at) / RFU IGFBP7 (11715501_s_at) / Fold change /veh IGFBP7 (11715501_s_at) / RFU REEP3 (11722064_at) / Fold change /veh REEP3 (11722064_at) / RFU IGLL1 (11728026_x_at) / Fold change /veh IGLL1 (11728026_x_at): dose or concentration left out as unconfirmed
Conditions: MV-4-11 cells, 48 hours

Nc1ncn([C@@H]2O[C@H](CO)[C@@H](O)[C@H]2O)c(=O)n1 [azacitidine]
Fold change /veh CCDC152 (11751479_a_at): 2.85
